The record followed here is PubChem BioAssay (NCI).

Test systems include SNB-19 CNS; SN12C renal; M14 melanoma; ACHN renal; U251 CNS; NCI-H460 lung; MOLT-4 leukemia; UACC-257 melanoma; SK-MEL-5 melanoma.
Assay in all cases: growth of human tumour cells (NCI), 48 h

Molecules are shown by their SMILES.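 Assay format: 96-well plates, 48-hour exposure. Here, GI50 denotes the concentration required for 50% inhibition of growth. TGI denotes the concentration required for complete inhibition of growth.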

On to `COc1c(NC(=O)CC(C)=O)[c]([Hg][O]C(C)=O)c(OC)c(Cl)[c]1[Hg][O]C(C)=O`, for which the GI50 is 18 µM in the assay on SNB-19 CNS; 15.4 µM in the assay on SN12C renal; 13 µM in the assay on M14 melanoma; 13 µM in the assay on ACHN renal; 10.1 µM in the assay with U251 CNS; 21.3 µM with NCI-H460 lung. Also, the GI50 was 19 µM in the assay on MOLT-4 leukemia, 13.7 µM in the assay on UACC-257 melanoma and 12.5 µM with SK-MEL-5 melanoma. For the same compound, the TGI in the assay on SNB-19 CNS was found to be 32.3 µM; in the assay on SN12C renal, 29.8 µM; with M14 melanoma, 25.7 µM; with ACHN renal, 25.6 µM; with U251 CNS it was 23.2 µM; with NCI-H460 lung, 49.9 µM. Also, the TGI in the assay with MOLT-4 leukemia came to 64.4 µM; in the assay on UACC-257 melanoma, 26.5 µM; in the assay with SK-MEL-5 melanoma, 25 µM.

In the case of `NC(=S)NNC(=O)CCC(=O)Nc1ccc(Cl)cc1Cl`, the TGI with SNB-19 CNS, with SN12C renal, in the assay on M14 melanoma, in the assay with ACHN renal, with U251 CNS and with NCI-H460 lung was more than 100 µM in each case. In addition, the TGI in the assay with MOLT-4 leukemia, with UACC-257 melanoma and with SK-MEL-5 melanoma was more than 100 µM throughout.

Take `O=C(OCC1OC(OC(=O)c2cc(O)c(O)c(OC(=O)c3cc(O)c(O)c(O)c3)c2)C(OC(=O)c2cc(O)c(O)c(OC(=O)c3cc(O)c(O)c(O)c3)c2)C(OC(=O)c2cc(O)c(O)c(OC(=O)c3cc(O)c(O)c(O)c3)c2)C1OC(=O)c1cc(O)c(O)c(OC(=O)c2cc(O)c(O)c(O)c2)c1)c1cc(O)c(O)c(OC(=O)c2cc(O)c(O)c(O)c2)c1` (stereo unspecified): the GI50 in the assay on SNB-19 CNS is 24.7 µM; with SN12C renal, 11.4 µM; in the assay with M14 melanoma it was 25.3 µM; in the assay on ACHN renal, 12.3 µM; in the assay with U251 CNS, 14.6 µM; in the assay on NCI-H460 lung it was 4.14 µM. The GI50 was 41.3 µM with MOLT-4 leukemia, 20.9 µM in the assay on UACC-257 melanoma and 10 µM in the assay with SK-MEL-5 melanoma. The TGI in the assay on SNB-19 CNS is more than 50 µM; with SN12C renal it was 29.8 µM; in the assay on M14 melanoma it was more than 50 µM; in the assay with ACHN renal, 32.8 µM; in the assay with U251 CNS it was more than 50 µM; with NCI-H460 lung it was 36 µM. For the same compound, the TGI in the assay with MOLT-4 leukemia is more than 50 µM; in the assay on UACC-257 melanoma it was more than 50 µM; in the assay on SK-MEL-5 melanoma, 27.9 µM.

For the compound `NCCCC1NC(=O)/C(=C(O)/C=C/C2CCC[C@@H]2CC2SCCS2)C1=O` (stereo partly specified), the TGI with SNB-19 CNS, in the assay on SN12C renal, in the assay on M14 melanoma, in the assay on ACHN renal, with U251 CNS and in the assay with NCI-H460 lung was more than 100 µM in each case. Moreover, the TGI in the assay on MOLT-4 leukemia, in the assay with UACC-257 melanoma and with SK-MEL-5 melanoma was more than 100 µM throughout.

As to `CC(=O)OCC1OC(n2c(=O)n(-c3ccccc3)c(=O)c3cc(Br)cc(Br)c32)C(OC(C)=O)C(OC(C)=O)C1OC(C)=O` (stereo unspecified), the TGI in the assay with SNB-19 CNS, with SN12C renal, with M14 melanoma, with ACHN renal, in the assay on U251 CNS and with NCI-H460 lung was more than 100 µM each time. The TGI in the assay on MOLT-4 leukemia, in the assay with UACC-257 melanoma and in the assay on SK-MEL-5 melanoma was more than 100 µM each time.

Regarding `CCOC(=O)[C@H]1Nc2ccc(Cl)cc2[C@H]2OCC[C@@H]12`, the TGI in the assay on SNB-19 CNS, in the assay with SN12C renal, in the assay with M14 melanoma, in the assay on ACHN renal, in the assay with U251 CNS and in the assay on NCI-H460 lung was more than 100 µM throughout. Besides, the TGI in the assay on MOLT-4 leukemia, with UACC-257 melanoma and with SK-MEL-5 melanoma was more than 100 µM throughout.

Regarding `COc1ccc2nc(NC(=O)C(=O)C(C(=O)c3ccccc3-c3ccccc3)C3OC(=O)c4ccccc43)sc2c1` (stereo unspecified), the TGI in the assay on M14 melanoma was 41.5 µM; in the assay on ACHN renal, 73.9 µM; in the assay on U251 CNS, 25.9 µM; with NCI-H460 lung it was 50.2 µM; in the assay on MOLT-4 leukemia it was 89.5 µM; with UACC-257 melanoma, more than 100 µM. In the assay with SK-MEL-5 melanoma, this compound returned a TGI of 31.1 µM.

Regarding `COc1cc([C@@H]2c3cc4c(cc3[C@@H](NCc3ccccc3)C3COC(=O)[C@@H]32)OCO4)cc(OC)c1O` (stereo partly specified), the TGI with SNB-19 CNS was determined as 42 µM; in the assay on SN12C renal, 18.8 µM; in the assay on M14 melanoma, 36.6 µM; in the assay on ACHN renal it was 5.92 µM; in the assay on U251 CNS, 27.3 µM; with NCI-H460 lung, 15.8 µM. For the same compound, the results for the TGI with MOLT-4 leukemia, in the assay with UACC-257 melanoma and with SK-MEL-5 melanoma were 13 µM, more than 90.2 µM and 35.8 µM, respectively.

`CCC[CH2][Sn]([CH2]CCC)([O]C(=O)c1cc(OC)c(OC)cc1OC)[O]C(=O)c1cc(OC)c(OC)cc1OC`: the GI50 in the assay with SNB-19 CNS is 0.626 µM; in the assay with SN12C renal, 1.52 µM; in the assay on M14 melanoma, 1.51 µM; with ACHN renal, 1.62 µM; with U251 CNS, 1.35 µM; with NCI-H460 lung, 3.08 µM. For the same compound, the GI50 in the assay on MOLT-4 leukemia was 0.747 µM; in the assay with UACC-257 melanoma it was 1.29 µM; in the assay with SK-MEL-5 melanoma it was 1.6 µM. Moreover, the TGI stood at 1.82 µM with SNB-19 CNS; 3.29 µM with SN12C renal; 2.99 µM in the assay with M14 melanoma; 3 µM with ACHN renal; 2.66 µM in the assay on U251 CNS; 12.1 µM in the assay on NCI-H460 lung. The values for the TGI in the assay with MOLT-4 leukemia, in the assay with UACC-257 melanoma and with SK-MEL-5 melanoma were 6.43 µM, 3.31 µM and 3.18 µM, respectively.

Take `Cc1ccccc1-c1c(N)nc(N)nc1C(=O)Nc1nccs1`: the TGI in the assay with SNB-19 CNS, in the assay with SN12C renal, in the assay with M14 melanoma, in the assay with ACHN renal, with U251 CNS and in the assay with NCI-H460 lung was more than 100 µM throughout. The TGI in the assay with MOLT-4 leukemia, in the assay on UACC-257 melanoma and in the assay on SK-MEL-5 melanoma was more than 100 µM in each case.

For the compound `Cc1ccc(NC(=O)CC/C(CC(=O)c2ccc(F)cc2)=N\NC(=O)C(=O)NN)cc1C`, the TGI in the assay on SNB-19 CNS, in the assay on SN12C renal, with M14 melanoma, with ACHN renal, in the assay on U251 CNS and in the assay with NCI-H460 lung was more than 100 µM in each case. The TGI in the assay on UACC-257 melanoma and in the assay on SK-MEL-5 melanoma was more than 100 µM throughout.

For the compound `CN(C)CC/C(=N\Nc1ccc(Cl)c(Cl)c1)c1ccccc1`, the TGI in the assay with SNB-19 CNS is 13.8 µM; with SN12C renal, 5.26 µM; with ACHN renal, 3.05 µM; in the assay on U251 CNS, 3.28 µM; in the assay with NCI-H460 lung, 3.65 µM; in the assay on MOLT-4 leukemia it was 5.9 µM. Moreover, the TGI stood at 9.61 µM with UACC-257 melanoma and 3.43 µM in the assay with SK-MEL-5 melanoma.
